Measured values from PMC4965013, “Open Source Drug Discovery with the Malaria Box Compound Collection for Neglected Diseases and Beyond” (PLoS Pathogens, 2016).

How the values were obtained:
[1] = tested on: P. falciparum 3D7 trophozoites; assay: Metabolomic fingerprint profiling LC-MS; type: cell-based, Plasmodium falciparum; set-up: UDP-D-glucose / ADP-D-glucose: unit not given here; conditions: for Acetyllysine / N-acetyl-L-ornithine / N-carbamoyl-L-aspartate / NADPH / dAMP / dCMP / dTDP / dTMP / dTTP / dihydroorotate / orotate / DLH / DLS/SDL/SID / PD / PEE / PVNF / 3-phosphoglycerate / ADP-D-glucose / ATP / CDP / D-sedoheptulose-1/7-phosphate / FAD / GMP / NAD+ / NADP+ / Octoluse Bisphosphate / Pyroglutamic acid / UDP-D-glucose / UDP-D-glucuronate / UDP-N-acetyl-glucosamine / UDP / UMP / UTP / a-ketoglutarate / citrate/isocitrate / cytidine / dATP / dGMP/AMP / fumarate / glucose-1/6-phosphate / glycerate / guanine / guanosine / hypoxanthine / indole / inosine / nicotinate / ornithine / phosphoenolpyruvate / pyruvate / ribose-phosphate / sarcosine/alanine / sn-glycerol-3-phosphate / succinate/methylmalonic acid / uridine / xanthosine: S2 Table Metabolomics; for Acetyllysine: metabolite Acetyllysine; for N-acetyl-L-ornithine: metabolite N-acetyl-L-ornithine; for N-carbamoyl-L-aspartate: metabolite N-carbamoyl-L-aspartate; for NADPH: metabolite NADPH; for dAMP: metabolite dAMP; for dCMP: metabolite dCMP; for dTDP: metabolite dTDP; for dTMP: metabolite dTMP; for dTTP: metabolite dTTP; for dihydroorotate: metabolite dihydroorotate; for orotate: metabolite orotate; for DLH: peptide DLH; for DLS/SDL/SID: peptide DLS/SDL/SID; for PD: peptide PD; for PEE: peptide PEE; for PVNF: peptide PVNF; for 3-phosphoglycerate: metabolite 3-phosphoglycerate; for ADP-D-glucose: metabolite ADP-D-glucose; for ATP: metabolite ATP; for CDP: metabolite CDP; for CDP / D-sedoheptulose-1/7-phosphate / GMP / Octoluse Bisphosphate / UDP / UMP / UTP / citrate/isocitrate / dGMP/AMP / fumarate / glucose-1/6-phosphate / glycerate / guanine / guanosine / inosine / pyruvate / sarcosine/alanine / succinate/methylmalonic acid / uridine / xanthosine: change in metabolite level after compound treatment; for D-sedoheptulose-1/7-phosphate: metabolite D-sedoheptulose-1/7-phosphate; for FAD: metabolite FAD; for GMP: metabolite GMP; for NAD+: metabolite NAD+; for NADP+: metabolite NADP+; for Octoluse Bisphosphate: metabolite Octoluse Bisphosphate; for Pyroglutamic acid: metabolite Pyroglutamic acid; for UDP-D-glucose: metabolite UDP-D-glucose; for UDP-D-glucuronate: metabolite UDP-D-glucuronate; for UDP-N-acetyl-glucosamine: metabolite UDP-N-acetyl-glucosamine; for UDP: metabolite UDP; for UMP: metabolite UMP; for UTP: metabolite UTP; for a-ketoglutarate: metabolite a-ketoglutarate; for citrate/isocitrate: metabolite citrate/isocitrate; for cytidine: metabolite cytidine; for dATP: metabolite dATP; for dGMP/AMP: metabolite dGMP/AMP; for fumarate: metabolite fumarate; for glucose-1/6-phosphate: metabolite glucose-1/6-phosphate; for glycerate: metabolite glycerate; for guanine: metabolite guanine; for guanosine: metabolite guanosine; for hypoxanthine: metabolite hypoxanthine; for indole: metabolite indole; for inosine: metabolite inosine; for 2_3-Diphosphoglyceric acid / 4-phosphopantothenate / 6-phospho-D-gluconate / FMN / IMP / Pyrophosphate / Sedoheptoluse bisphosphate / cyclic-AMP / glutathione disulfide / lactate / myo-inositol: metabolite level change after treatment; for nicotinate: metabolite nicotinate; for ornithine: metabolite ornithine; for phosphoenolpyruvate: metabolite phosphoenolpyruvate; for pyruvate: metabolite pyruvate; for ribose-phosphate: metabolite ribose-phosphate; for sarcosine/alanine: metabolite sarcosine/alanine; for sn-glycerol-3-phosphate: metabolite sn-glycerol-3-phosphate; for succinate/methylmalonic acid: metabolite succinate/methylmalonic acid; for uridine: metabolite uridine; for xanthosine: metabolite xanthosine
P. falciparum = assay: EC50 listed in S2 Table Metabolomics (used to set the concentration tested); type: cell-based; conditions: Plasmodium falciparum; EC50 used for Factor_XEC50 in metabolomics; read-out: EC50_nM

CCCCCC(=O)N1c2ccccc2N=C2CC(c3ccc(OC)c(OC)c3)CC(O)=C2C1c1ccc(C(F)(F)F)cc1 (stereo not drawn) [MMV085583]
Acetyllysine [1]: -3.233
N-acetyl-L-ornithine [1]: -2.906
N-carbamoyl-L-aspartate [1]: -0.5597
NADPH [1]: 1.284
dAMP [1]: 0.2596
dCMP [1]: -0.4552
dTDP [1]: -0.3582
dTMP [1]: -0.9265
dTTP [1]: 0.1067
dihydroorotate [1]: -0.6697
orotate [1]: -1.058
DLH [1]: -2.5
DLS/SDL/SID [1]: -2.559
PD [1]: -2.735
PEE [1]: -2.9857
PVNF [1]: -3.329
3-phosphoglycerate [1]: 0.3606
ADP-D-glucose [1]: -0.0158
ATP [1]: -0.07202
CDP [1]: -0.3911
D-sedoheptulose-1/7-phosphate [1]: -0.5433
FAD [1]: -0.3185
GMP [1]: -0.4734
NAD+ [1]: -0.2717
NADP+ [1]: 0.1968
Octoluse Bisphosphate [1]: -0.2833
Pyroglutamic acid [1]: -0.1555
UDP-D-glucose [1]: -0.1587
UDP-D-glucuronate [1]: -0.1055
UDP-N-acetyl-glucosamine [1]: -0.2414
UDP [1]: -0.8399
UMP [1]: -0.6631
UTP [1]: -0.1073
a-ketoglutarate [1]: -0.8202
citrate/isocitrate [1]: -0.2512
cytidine [1]: -0.09635
dATP [1]: 0.2253
dGMP/AMP [1]: -0.1442
fumarate [1]: -0.4715
glucose-1/6-phosphate [1]: -0.3133
glycerate [1]: -0.7263
guanine [1]: -0.4303
guanosine [1]: -0.4531
hypoxanthine [1]: -0.4709
indole [1]: -0.4645
inosine [1]: -0.4523
2_3-Diphosphoglyceric acid [1]: 0.1524
4-phosphopantothenate [1]: -0.4091
6-phospho-D-gluconate [1]: -0.01182
FMN [1]: -0.2086
IMP [1]: -0.3529
Pyrophosphate [1]: 0.1499
Sedoheptoluse bisphosphate [1]: 0.0221
cyclic-AMP [1]: -0.3292
glutathione disulfide [1]: -0.6201
lactate [1]: -0.8724
myo-inositol [1]: -1.425
nicotinate [1]: 0.07742
ornithine [1]: 0.02649
phosphoenolpyruvate [1]: 0.334
pyruvate [1]: -0.3941
ribose-phosphate [1]: -0.07903
sarcosine/alanine [1]: -0.9167
sn-glycerol-3-phosphate [1]: 0.1681
succinate/methylmalonic acid [1]: -0.405
uridine [1]: -0.7297
xanthosine [1]: 0.125
EC50 (P. falciparum): 237 nM

Cc1ccc(-c2cc3c(nn2)-c2ccccc2C3=O)cc1 [MMV666021]
Acetyllysine [1]: -0.3916
N-acetyl-L-ornithine [1]: -0.1425
N-carbamoyl-L-aspartate [1]: 3.794
NADPH [1]: 1.165
dAMP [1]: -0.6653
dCMP [1]: -0.7362
dTDP [1]: -1.533
dTMP [1]: -1.5256
dTTP [1]: -1.181
dihydroorotate [1]: 4.247
orotate [1]: -2.195
DLH [1]: 0.5354
DLS/SDL/SID [1]: 0.5895
PD [1]: 0.02372
PEE [1]: 0.1996
PVNF [1]: 0.3334
3-phosphoglycerate [1]: 0.4336
ADP-D-glucose [1]: 0.0706
ATP [1]: 0.08889
CDP [1]: -1.433
D-sedoheptulose-1/7-phosphate [1]: -0.7013
FAD [1]: 0.04196
GMP [1]: 1.198
NAD+ [1]: -0.07934
NADP+ [1]: 0.07896
Octoluse Bisphosphate [1]: 0.0421
Pyroglutamic acid [1]: -0.4992
UDP-D-glucose [1]: 0.003691
UDP-D-glucuronate [1]: -0.1073
UDP-N-acetyl-glucosamine [1]: -0.2024
UDP [1]: -2.005
UMP [1]: -0.6482
UTP [1]: -1.713
a-ketoglutarate [1]: -0.6601
citrate/isocitrate [1]: -2.126
cytidine [1]: 0.5518
dATP [1]: 0.3766
dGMP/AMP [1]: -0.5358
fumarate [1]: 0.2361
glucose-1/6-phosphate [1]: 0.01993
glycerate [1]: -1.131
guanine [1]: -0.835
guanosine [1]: -1.803
hypoxanthine [1]: -0.06084
indole [1]: -0.09156
inosine [1]: -0.5269
2_3-Diphosphoglyceric acid [1]: -0.1865
4-phosphopantothenate [1]: -0.7776
6-phospho-D-gluconate [1]: 0.009051
FMN [1]: 0.04698
IMP [1]: -0.1163
Pyrophosphate [1]: -0.09516
Sedoheptoluse bisphosphate [1]: -0.2318
cyclic-AMP [1]: -0.2358
glutathione disulfide [1]: -0.3199
lactate [1]: -0.9153
myo-inositol [1]: -1.23
nicotinate [1]: -1.397
ornithine [1]: 0.08018
phosphoenolpyruvate [1]: 0.1844
pyruvate [1]: -1.786
ribose-phosphate [1]: 0.5392
sarcosine/alanine [1]: -0.3874
sn-glycerol-3-phosphate [1]: 0.4697
succinate/methylmalonic acid [1]: -0.7859
uridine [1]: -1.3045
xanthosine [1]: -0.5693
EC50 (P. falciparum): 94.4 nM

COc1ccc(C(=O)Nc2nonc2-c2ccc(OC)c(OC)c2)cc1Cl [MMV011567]
Acetyllysine [1]: -2.7765
N-acetyl-L-ornithine [1]: -1.047
N-carbamoyl-L-aspartate [1]: -1.546
NADPH [1]: -0.479
dAMP [1]: 2.616
dCMP [1]: 7.615
dTDP [1]: 4.376
dTMP [1]: 5.592
dTTP [1]: 4.192
dihydroorotate [1]: -1.311
orotate [1]: 1.606
DLH [1]: -3.738
DLS/SDL/SID [1]: -3.085
PD [1]: -0.447
PEE [1]: -2.659
PVNF [1]: -4.149
3-phosphoglycerate [1]: -0.4312
ADP-D-glucose [1]: -0.3179
ATP [1]: 0.7262
CDP [1]: 1.853
D-sedoheptulose-1/7-phosphate [1]: -0.5728
FAD [1]: -0.6926
GMP [1]: -3.051
NAD+ [1]: -0.6365
NADP+ [1]: -0.4288
Octoluse Bisphosphate [1]: -1.352
Pyroglutamic acid [1]: 0.8228
UDP-D-glucose [1]: 0.2841
UDP-D-glucuronate [1]: 0.3235
UDP-N-acetyl-glucosamine [1]: 0.4364
UDP [1]: 1.166
UMP [1]: 0.1995
UTP [1]: 0.7659
a-ketoglutarate [1]: -0.1289
citrate/isocitrate [1]: 1.575
cytidine [1]: 0.6834
dATP [1]: 1.434
dGMP/AMP [1]: -0.9068
fumarate [1]: 0.5595
glucose-1/6-phosphate [1]: -0.4437
glycerate [1]: -0.2059
guanine [1]: 1.129
guanosine [1]: 0.9628
hypoxanthine [1]: 0.8431
indole [1]: 0.1357
inosine [1]: -0.4655
2_3-Diphosphoglyceric acid [1]: -0.4768
4-phosphopantothenate [1]: 0.1624
6-phospho-D-gluconate [1]: 0.2149
FMN [1]: 0.2743
IMP [1]: 0.2415
Pyrophosphate [1]: -0.9055
Sedoheptoluse bisphosphate [1]: -0.2891
cyclic-AMP [1]: 0.1677
glutathione disulfide [1]: 0.2649
lactate [1]: -0.6986
myo-inositol [1]: -1.672
nicotinate [1]: 1.088
ornithine [1]: 0.1615
phosphoenolpyruvate [1]: -0.2076
pyruvate [1]: -1.296
ribose-phosphate [1]: -0.6006
sarcosine/alanine [1]: -1.205
sn-glycerol-3-phosphate [1]: 0.6609
succinate/methylmalonic acid [1]: -0.1426
uridine [1]: 0.07808
xanthosine [1]: 0.9674
EC50 (P. falciparum): 516 nM
